Key:
calponin and αSMA = experiment: Mesenchymal marker expression (immunostaining, qRT-PCR, Western blot); assay type: cell-based, mouse
Description: For immunostaining, cells were fixed with 4% paraformaldehyde (Electron Microscopy Sciences), permeabilized with 0.5% Triton-X-100 (Sigma), and blocked with 5% donkey serum (Jackson Immunoresearch) in phosphate buffered saline (PBS). For actin-cytoskeleton staining, samples were incubated with fluorescein isothiocyanate-conjugated phalloidin (Invitrogen) for 1 hour. Primary antibodies were incubated for 1 hour at room temperature or overnight at 4° C., followed by 1-hour incubation with Alexa 488 and/or Alexa 546-labeled secondary antibodies (Molecular Probes). Nuclei were stained with 4,6-diamino-2-phenylindole (DAPI) (Invitrogen).
RNA was isolated from samples using Trizol® (Ambion) according to the manufacturer's instructions. For cDNA synthesis, 500 ng of RNA was reverse transcribed using Maxima First Strand cDNA Synthesis Kit (ThermoFisher Scientific). Template DNA was amplified using Maxima SYBR Green/Fluorescein qPCR Master Mix (ThermoFisher Scientific) on a CFX qPCR machine (Bio-Rad). qRT-PCR data were analyzed using CFX Manager 3.1 (Bio-Rad) and gene expression levels were normalized to 18S.
Fibroblasts were lysed and collected in Laemmli buffer ([…] Tris-HCl, 10% glycerol, 2% SDS, 5% 2-mercaptoethanol, 0.002% bromophenol blue) containing RIPA buffer (50 mM Tris-HCl, 150 mM NaCl, 1% Triton-X-100, 0.1% SDS, 10 mM NaF, 0.5% sodium deoxycholate) along with protease inhibitors (PMSF, Na3VO4 and Leupeptin) on ice. Protein lysates were centrifuged to pellet cell debris, and the supernatant was collected and used in further analysis. Protein samples were run using SDS-PAGE and transferred to polyvinylidene fluoride (PVDF) membranes. Membranes were blocked in 3% nonfat milk and incubated with primary antibodies overnight. Primary antibodies include pFAK, FAK, αSMA, Calponin, pERK, ERK, and GAPDH. Membranes were washed with Tris-Buffered Saline+0.05% Tween-20 and incubated with HRP-conjugated IgG secondary antibodies (Santa Cruz Biotechnologies) for one hour. Protein bands were visualized using Western Lightning™ Plus—Enhanced Chemiluminscence Substrate (Perkin Elmer Life & Analytical Sciences) and imaged on a ChemiDoc XRS system (Bio-Rad).

[1] = system: promoter regions of Ascl1, Brn2, Myt1l and TUBB3; experiment: ChIP-qPCR of histone modifications at neuronal gene promoters; assay type: cell-based, mouse; details: BAM-transduced fibroblasts, day 3, relative to DMSO
Description: Halt™ Protease and Phosphatase Inhibitor Cocktail (ThermoFisher Scientific, 78442) was added to Cell Lysis (10 mM Tris-HCl pH 8.0, 85 mM KCl, 0.5% NP-40), Nuclei Lysis (10 mM Tris-HCl pH 7.5, 1% NP-40, 0.5% sodium deoxycholate, 0.1% SDS), and ChIP Dilution (0.01% SDS, 1.1% Triton X-100, 1.2 mM EDTA, 16.7 mM Tris-HCL pH 8.1, 167 mM NaCl) Buffers.
Three days post-Dox addition, 4×10^6 BAM-transduced fibroblasts cultured in the absence and presence of 10 μM blebbistatin and 5 μM PF573228, respectively, for 2 days were fixed using 1% formaldehyde in PBS (Fisher Scientific, BP531) for 10 minutes. 125 mM Glycine was added for 5 minutes to quench excess formaldehyde, followed by 2 washes with cold 1×PBS. Cells were scraped and collected into microcentrifuge tubes and centrifuged at 800 g at 4° C. for 5 minutes. Upon removing the supernatant, cell pellets were snap-frozen in liquid nitrogen and stored at −80° C. The cells were then resuspended and lysed in Cell Lysis Buffer and resuspended in Nuclei Lysis Buffer prior to sonication using a Branson SFX250 Sonifier at 40% amplitude, 0.7 seconds on and 1.3 seconds off, for a total of 8 minutes. […]
50 μL ChIP Elution Buffer was added to the stored internal controls from the post-sonication step. […] ChIP-qPCR data were analyzed by normalizing the DNA concentration to percent input using the relative standard curve method.

SMILES | calponin and αSMA expression in BAM-transduced fibroblasts (calponin and αSMA; treated for 2 days) | histone modifications at promoter regions of Ascl1, Brn2, Myt1l and TUBB3 [1] | calponin- and αSMA-positive cells (calponin and αSMA; non-transduced fibroblasts) | calponin and αSMA expression, gene and protein level (calponin and αSMA; non-transduced fibroblasts, day 3) | Eln and DCN expression (calponin and αSMA; qRT-PCR, non- and BAM-transduced fibroblasts)
CS(=O)(=O)c1cccc(CNc2nc(Nc3ccc4c(c3)CCC(=O)N4)ncc2C(F)(F)F)c1 [PF573228] | decreased | significant increases in AcH3, H3K3me3 and H3K4me1 at the promoter regions | – | – | –
Cc1ccc2c(c1)C(=O)C1(O)CCN(c3ccccc3)C1=N2 (stereo not drawn) [blebbistatin] | – | significant increases in AcH3, H3K4me3 and H3K4me1 at all four promoter regions | less calponin and α-smooth muscle actin (SMA)-positive cells | decreased at the gene and protein level by day 3 | downregulated the expression of other mesenchymal and fibroblast-associated genes, Eln and DCN
